Values of other authors in patent US20070054964A1 (Wyeth, priority 2005, published 2007).

Key:
[1] = test system: neuronal norepinephrine re-uptake
[2] = compared with ODV free base
[3] = oral administration, vs venlafaxine, ODV or other salts of ODV
[4] = compared with ODV free base; remark: listed apart in the source
[5] = target: H1-histaminergic receptors (Homo sapiens, UniProt P35367)
[6] = test system: neuronal serotonin re-uptake
[7] = in vitro studies, Muth et al. 1991

H1-histaminergic receptors, sequence (P35367 whole entry): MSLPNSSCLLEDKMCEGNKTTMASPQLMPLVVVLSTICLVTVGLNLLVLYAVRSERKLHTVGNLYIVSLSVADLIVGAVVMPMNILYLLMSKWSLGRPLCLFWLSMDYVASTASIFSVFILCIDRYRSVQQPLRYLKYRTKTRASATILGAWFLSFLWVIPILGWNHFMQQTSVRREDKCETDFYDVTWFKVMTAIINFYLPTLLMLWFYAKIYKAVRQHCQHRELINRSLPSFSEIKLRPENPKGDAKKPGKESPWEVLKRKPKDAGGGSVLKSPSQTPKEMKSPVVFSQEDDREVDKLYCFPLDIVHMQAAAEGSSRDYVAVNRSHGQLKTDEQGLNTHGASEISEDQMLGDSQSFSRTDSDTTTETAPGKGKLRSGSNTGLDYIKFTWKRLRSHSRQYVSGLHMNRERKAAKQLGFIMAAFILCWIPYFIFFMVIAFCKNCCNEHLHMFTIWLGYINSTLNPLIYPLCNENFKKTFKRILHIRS

Compound | inhibition of dopamine re-uptake (dopamine re-uptake) | inhibition of neuronal norepinephrine re-uptake [1] | affinity for α1-adrenergic receptors (α1-adrenergic receptors) | bioavailability [2] | incidence of nausea, vomiting, diarrhea, abdominal pain, headache, vaso-vagal malaise, and/or trismus [3] | permeability [4] | affinity for muscarinic receptors (muscarinic receptors) | affinity for H1-histaminergic receptors [5] | potency of norepinephrine re-uptake inhibition compared with venlafaxine [1, 7] | inhibition of neuronal serotonin re-uptake [6] | potency of serotonin re-uptake inhibition compared with venlafaxine [6, 7] | solubility compared with venlafaxine
COc1ccc(C(CN(C)C)C2(O)CCCCC2)cc1 (racemic) [Venlafaxine, (±)-1-[2-(dimethylamino)-1-(4-methoxyphenyl)ethyl]-cyclohexanol] | weak inhibitors | potent inhibitors | no significant affinity | – | – | – | – | – | – | – | – | –
CN(C)CC(c1ccc(O)cc1)C1(O)CCCCC1.O=C(O)CCC(=O)O (stereo not drawn) [ODV succinate] | – | – | – | improved | lower incidence | improved | – | – | – | – | – | –
CN(C)CC(c1ccc(O)cc1)C1(O)CCCCC1 (stereo not drawn) [ODV, 1-[2-(dimethyl-amino)-1-(4-phenyl)ethyl]-cyclohexanol] | weak inhibitors | potent inhibitors | no significant affinity | – | – | – | no significant affinity | no significant affinity | more potent inhibitor | potent inhibitors | more potent inhibitor | more soluble
